Source: patent publication US20210388455A1 (priority 2020, published 2021)
Like-named read-outs stand apart in the source and are kept apart here.

Columns and labels:
SARS-CoV-2 [1] = conditions: known values of FDA approved drugs; cited from earlier work
[2] = molecular target: ACE2 binding to SARS-CoV-2 S1-RBD (Homo sapiens, UniProt Q9BYF1); experiment: ELISA of ACE2/S1-RBD inhibitory activity; parameters: species or system human ACE2 / SARS-CoV-2; conditions: recombinant 2019-nCoV S1-RBD coated plate, read-out: IC50 inhibiting ACE2 binding to SARS-CoV-2 S1-RBD
Sequence of ACE2 binding to SARS-CoV-2 S1-RBD (Q9BYF1 18-740): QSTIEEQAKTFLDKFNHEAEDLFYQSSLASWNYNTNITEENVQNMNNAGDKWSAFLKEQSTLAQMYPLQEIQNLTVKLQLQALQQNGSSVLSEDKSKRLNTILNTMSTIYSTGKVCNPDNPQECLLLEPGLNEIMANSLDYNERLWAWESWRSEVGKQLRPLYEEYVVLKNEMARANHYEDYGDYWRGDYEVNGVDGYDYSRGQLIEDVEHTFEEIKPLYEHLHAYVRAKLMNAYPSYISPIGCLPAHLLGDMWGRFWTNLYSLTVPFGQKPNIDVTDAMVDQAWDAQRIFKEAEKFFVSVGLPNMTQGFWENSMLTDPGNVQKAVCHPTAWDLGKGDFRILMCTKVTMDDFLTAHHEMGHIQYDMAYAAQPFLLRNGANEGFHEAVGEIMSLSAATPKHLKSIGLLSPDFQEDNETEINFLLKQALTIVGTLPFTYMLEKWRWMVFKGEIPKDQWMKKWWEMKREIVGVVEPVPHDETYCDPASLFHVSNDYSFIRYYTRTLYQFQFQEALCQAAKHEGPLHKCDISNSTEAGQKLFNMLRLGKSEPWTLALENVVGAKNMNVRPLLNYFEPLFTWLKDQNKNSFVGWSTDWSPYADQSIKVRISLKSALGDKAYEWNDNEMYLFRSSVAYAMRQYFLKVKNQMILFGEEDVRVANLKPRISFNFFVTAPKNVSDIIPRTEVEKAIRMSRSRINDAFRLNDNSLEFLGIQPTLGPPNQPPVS

SARS-CoV-2 [3] = format: cell-based
VeroE6-EGFP cells = conditions: no virus

Row | Compound | EC50 (SARS-CoV-2 [1]) [µM] | IC50 [2] [nM] | EC50 (SARS-CoV-2 [3]) [µM] | CC50 (VeroE6-EGFP cells) [µM]
1 | CC(C)(C)NC(=O)[C@@H]1CN(Cc2cccnc2)CCN1C[C@@H](O)C[C@@H](Cc1ccccc1)C(=O)N[C@H]1c2ccccc2C[C@H]1O [Indinavir] | 59.1 |  |  | 
2 | Nc1nc2c(ncn2CCC(CO)CO)c(=O)[nH]1 [Penciclovir] | 96 |  |  | 
3 | Kobophenol A |  | 1810 ± 40 | 71.6 | > 100
